Data on 4 compounds can be found in patent US20100209404A1, “ENHANCED METHOD FOR PRODUCING STEM-LIKE CELLS FROM SOMATIC CELLS” (UNIVERSITY OF DAYTON, priority 2009, published 2010).

For one test, the system named is skin fibroblast cells. Conditions: thapsigargin 1 μg/ml in SR-containing medium; cited from earlier work.
In test [1] the test system is fibroblast growth factor receptor 3 (FGFR3). The settings on record: thapsigargin 1 μg/ml in SR-containing medium; cited from earlier work.
Another test relates to skin fibroblasts. The settings on record: SR reconstituted while eliminating individual supplements; cited from earlier work.
The test system of test [2] is Mouse embryonic skin fibroblast (MEF) cells. Kind of test: Conversion (reprogramming) of MEF cells into stem-like cells in defined medium. In kind it is cell-based. How it is done: MEF medium: DMEM (Invitrogen 11965-092) supplemented with 10% FBS (16000-044), 100 U/mL penicillin streptomycin (15140-122). Defined medium (Modified/Supplemented SR medium): 400 ml DMEM/F12 (Invitrogen 11330-032), 5 ml non-Essential Amino Acids (Invitrogen 11140-050), 2.5 ml L-Glutamine (Invitrogen 25030-018), 0.1 mM β-mercaptoethanol (Sigma 7522, add 3.5 μl) and 100 ml Knockout Serum Replacer (Invitrogen 10828-028). 4 ng/mL bFGF (13256-029), 1000/ml unit of ESGRO™ (Lif) (Chemicon Cat #ESG1107). For each experiment, the necessary amount of defined medium was aliquoted, and then freshly prepared bFGF and Lif were added to the medium each time just in advance of use. (Lif was used as a component of such medium for mouse cell culture only.) FGF stock was made by adding 1 ml of DMEM/F12 to a vial of 10 μg of FGF, with the 10 μg of FGF dissolved in the DMEM/F12 and then aliquoted into five vials. Stock vials were then stored at −20° C. For each 30 ml of defined medium, 12 μl of the stock bFGF was added. Arachidonic acid (AA) stock was made by dissolving 10 mg of AA (from porcine liver A3555-10M Sigma) in 1 ml of DMSO. Dissolved AA was then aliquoted into five vials, and then store at −20° C. ([…]). Before use in defined medium, the 10 mg/ml AA was diluted with 1×PBS at a 1:5 ratio. […]

For a further test, the system named is ES-like cells. Conditions: bFGF (4 ng/ml) and Lif added together to SR-containing medium; cited from earlier work.

Take `C/C=C(/C)C(=O)O[C@H]1C(C)=C2[C@H]([C@@H]1OC(=O)CCCCCCC)[C@@](C)(OC(C)=O)C[C@H](OC(=O)CCC)[C@@]1(O)[C@H]2OC(=O)[C@@]1(C)O` [Thapsigargin]: the “conversion of skin fibroblast cells into stem cell-like cells” value in the test on skin fibroblast cells was “prevented”. Besides, the “up-regulated expression of FGFR3” value in test [1] is “prevented”.
For `CCCCC/C=C\C/C=C\C/C=C\C/C=C\CCCC(=O)O` [arachidonic acid, all-cis 5,8,11,14-eicosatetraenoic acid], in the test on skin fibroblasts, the “role of SR component in reprogramming somatic cells (e.g., fibroblasts) into stem-like cells” value was “critical components”. Also, the “conversion efficiency of somatic cells” value in test [2] (arachidonic acid 2 mg/L added to defined medium, in isolation or together with pluronic F68) is “increase the conversion efficiency”.
With bFGF: basic fibroblast growth factor, in the test with ES-like cells, the “differentiation of the ES-like cells” value was “preventing differentiation” and the “division of the ES-like cells” value is listed as “promote division”. Besides, in test [2] (freshly prepared, bFGF 4 ng/mL and Lif 1000/ml unit added to defined medium immediately prior to every conversion or passage), the “efficient reprogramming of MEF cells to stem-like cells” value is “important to ensuring efficient reprogramming”.
On to “lipid-rich BSA: lipid-rich BSA (AlbuMax I, Invitrogen), component of serum replacement”, for which the “role of SR component in reprogramming somatic cells (e.g., fibroblasts) into stem-like cells” value in the test on skin fibroblasts is “critical components”.
